Tests used:
[1] = biological target: T1, DHR3 (Drosophila melanogaster, UniProt P31396); assay: DHR3 gene reporter assay; format: cell-based; conditions: up to 96 μM
T1 sequence (P31396 1-487): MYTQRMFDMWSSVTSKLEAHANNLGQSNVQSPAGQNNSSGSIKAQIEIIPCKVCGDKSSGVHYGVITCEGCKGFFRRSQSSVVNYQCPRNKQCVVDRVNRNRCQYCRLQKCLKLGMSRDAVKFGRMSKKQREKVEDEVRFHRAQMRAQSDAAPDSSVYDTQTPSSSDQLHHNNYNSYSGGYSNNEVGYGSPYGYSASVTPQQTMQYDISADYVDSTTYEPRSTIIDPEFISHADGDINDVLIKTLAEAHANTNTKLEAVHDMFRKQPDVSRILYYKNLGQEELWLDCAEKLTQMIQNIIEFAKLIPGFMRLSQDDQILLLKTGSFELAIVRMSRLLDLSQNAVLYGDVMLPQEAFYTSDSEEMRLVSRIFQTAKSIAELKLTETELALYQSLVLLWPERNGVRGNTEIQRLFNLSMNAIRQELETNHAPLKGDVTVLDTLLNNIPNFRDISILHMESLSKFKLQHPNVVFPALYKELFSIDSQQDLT

[2] = tested on: Th1 cell differentiation; assay: Th1 cell differentiation; format: cell-based, mouse; conditions: 20 μM; data not shown
[3] = tested on: mouse TH17 cell differentiation; assay: mouse TH17 cell differentiation; format: cell-based; conditions: read-out: inhibition of mouse TH17 cell differentiation
[4] = tested on: VP16; format: cell-based; conditions: up to 96 μM
[5] = biological target: T2, RORα (Mus musculus, UniProt P51448); assay: RORα gene reporter assay; format: cell-based; conditions: up to 96 μM
T2 sequence (P51448 1-523): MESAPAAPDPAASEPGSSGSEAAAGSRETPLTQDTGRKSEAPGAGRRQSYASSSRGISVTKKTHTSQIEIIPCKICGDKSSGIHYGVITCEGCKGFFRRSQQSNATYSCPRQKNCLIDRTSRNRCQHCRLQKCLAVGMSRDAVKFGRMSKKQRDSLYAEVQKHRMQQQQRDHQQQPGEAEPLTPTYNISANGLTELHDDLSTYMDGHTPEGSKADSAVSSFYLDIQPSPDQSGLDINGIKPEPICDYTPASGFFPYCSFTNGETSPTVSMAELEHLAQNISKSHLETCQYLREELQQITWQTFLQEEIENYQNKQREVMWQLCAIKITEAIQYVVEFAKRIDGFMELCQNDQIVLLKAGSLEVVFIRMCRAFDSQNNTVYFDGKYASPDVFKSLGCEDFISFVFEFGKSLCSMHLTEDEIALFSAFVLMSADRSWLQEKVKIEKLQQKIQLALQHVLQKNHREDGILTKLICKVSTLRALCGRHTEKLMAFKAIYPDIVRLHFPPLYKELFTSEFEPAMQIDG

[6] = biological target: T3, RORγ ligand binding domain (LBD) (Homo sapiens, UniProt P51449); assay: fluoroprobe; conditions: competition assay
T3 sequence (P51449 269-508 limits assumed): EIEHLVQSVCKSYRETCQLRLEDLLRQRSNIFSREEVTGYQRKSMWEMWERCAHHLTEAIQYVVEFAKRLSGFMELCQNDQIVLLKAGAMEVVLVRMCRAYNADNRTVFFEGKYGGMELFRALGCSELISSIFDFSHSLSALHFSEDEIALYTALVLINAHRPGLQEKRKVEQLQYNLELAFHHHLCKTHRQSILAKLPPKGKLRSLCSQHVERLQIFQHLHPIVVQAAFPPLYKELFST

[7] = biological target: T4, RORγ (Mus musculus, UniProt P51450); assay: cell-based RORγ gene reporter assay; conditions: for IC50 (μM) (RORγ): Table 1, region A, mean of four replicates from two independent experiments
T4 sequence (P51450 1-516): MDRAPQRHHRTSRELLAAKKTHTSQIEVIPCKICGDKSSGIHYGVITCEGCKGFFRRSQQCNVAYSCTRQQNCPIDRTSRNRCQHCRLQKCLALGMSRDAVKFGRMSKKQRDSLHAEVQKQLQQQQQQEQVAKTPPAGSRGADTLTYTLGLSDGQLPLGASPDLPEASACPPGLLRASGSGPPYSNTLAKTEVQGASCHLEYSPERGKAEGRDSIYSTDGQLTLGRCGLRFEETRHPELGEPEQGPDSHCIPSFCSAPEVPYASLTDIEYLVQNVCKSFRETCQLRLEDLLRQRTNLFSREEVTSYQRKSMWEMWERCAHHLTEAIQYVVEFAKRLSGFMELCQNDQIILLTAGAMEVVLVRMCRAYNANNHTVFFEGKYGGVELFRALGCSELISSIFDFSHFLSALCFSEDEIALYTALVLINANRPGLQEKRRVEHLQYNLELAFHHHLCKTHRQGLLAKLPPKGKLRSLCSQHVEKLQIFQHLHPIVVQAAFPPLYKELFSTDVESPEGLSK

COc1cc(O)c(C(CC(=O)N2CCCC(C)C2)c2ccc3c(c2)OCO3)c(OC)c1 (stereo not drawn) [Compound 4a]
activity in the DHR3 assay [1]: no activity
effect on Th1 cell differentiation [2]: no effect
inhibition at 20 µM [3]: 84%
activity in the VP16 assay [4]: no activity
activity in the RORα assay [5]: no activity

COc1cc(O)c(C(CC(=O)N2CCOCC2)c2ccc3c(c2)OCO3)c(OC)c1 (stereo not drawn) [Compound 4k]
displacement of hydroxycholesterol from RORγ LBD [6]: failed to displace
IC50 (μM) (RORγ) [7]: inactive

COc1cc(O)c(C(CC(=O)N2C[C@@H](C)N[C@@H](C)C2)c2ccc3c(c2)OCO3)c(OC)c1 (stereo partly drawn) [Compound 4m]
IC50 (μM) (RORγ) [7]: inactive

C[C@H]1O[C@@H](O[C@H]2[C@@H](O)C[C@H](O[C@H]3[C@@H](O)C[C@H](O[C@H]4CC[C@@]5(C)[C@H](CC[C@@H]6[C@@H]5C[C@@H](O)[C@]5(C)[C@@H](C7=CC(=O)OC7)CC[C@]65O)C4)O[C@@H]3C)O[C@@H]2C)C[C@H](O)[C@@H]1O [Digoxin, reference compound]
result in qHTS for RORγ antagonists ([7]; qHTS of 310,000 compounds with VP16 counterscreen): selective antagonists

— article PMC3770298 (ACS medicinal chemistry letters, 2013)
